# Experiments:
# Type in all cases: biochemical
# [1] = tested on: serum oxidases; assay: Library screening with serum, ESI-MS monitoring of oxidized products; conditions: acetate buffer pH 5.0, 37° C., 1 h
# Protocol: The chemical library dissolved in DMSO individually to give stock concentrations of 1 mg/mL. Each chemical was placed in individual well and incubated with serum sample in acetate buffer (0.1M, pH 5.0) at 37° C. for 1 h. Additional DMSO was provided to inhibit oxidase activity. High-resolution ESI mass spectra (Bruker Daltonics spectrometer) was utilized to monitor the oxidized products.
# To screen for suitable compounds as Cp substrates for MS analysis, an approach of combinatorial library screening in primary MS analysis was used to find out oxidized products and their relationship with initial substrates. Briefly, a platform for rapidly and conveniently screening various small molecules was established. In the chemical library collection as obtained, including natural products, synthetic compounds and heterocyclic molecules, each member was parallelly incubated with a certain small amount of serum for a desired reaction time. After quenching each enzyme reaction, analysis of the reaction products with ESI-MS was performed. Hits with reliable, major, and distinct oxidized product peaks in ESI-MS analysis were selected for further studies (FIG. 1).
# [2] = target: T1, ceruloplasmin (Homo sapiens, UniProt P00450); assay: Ceruloplasmin spike-in experiment in normal serum, LC-MS/MS
# T1 sequence (P00450 20-1065): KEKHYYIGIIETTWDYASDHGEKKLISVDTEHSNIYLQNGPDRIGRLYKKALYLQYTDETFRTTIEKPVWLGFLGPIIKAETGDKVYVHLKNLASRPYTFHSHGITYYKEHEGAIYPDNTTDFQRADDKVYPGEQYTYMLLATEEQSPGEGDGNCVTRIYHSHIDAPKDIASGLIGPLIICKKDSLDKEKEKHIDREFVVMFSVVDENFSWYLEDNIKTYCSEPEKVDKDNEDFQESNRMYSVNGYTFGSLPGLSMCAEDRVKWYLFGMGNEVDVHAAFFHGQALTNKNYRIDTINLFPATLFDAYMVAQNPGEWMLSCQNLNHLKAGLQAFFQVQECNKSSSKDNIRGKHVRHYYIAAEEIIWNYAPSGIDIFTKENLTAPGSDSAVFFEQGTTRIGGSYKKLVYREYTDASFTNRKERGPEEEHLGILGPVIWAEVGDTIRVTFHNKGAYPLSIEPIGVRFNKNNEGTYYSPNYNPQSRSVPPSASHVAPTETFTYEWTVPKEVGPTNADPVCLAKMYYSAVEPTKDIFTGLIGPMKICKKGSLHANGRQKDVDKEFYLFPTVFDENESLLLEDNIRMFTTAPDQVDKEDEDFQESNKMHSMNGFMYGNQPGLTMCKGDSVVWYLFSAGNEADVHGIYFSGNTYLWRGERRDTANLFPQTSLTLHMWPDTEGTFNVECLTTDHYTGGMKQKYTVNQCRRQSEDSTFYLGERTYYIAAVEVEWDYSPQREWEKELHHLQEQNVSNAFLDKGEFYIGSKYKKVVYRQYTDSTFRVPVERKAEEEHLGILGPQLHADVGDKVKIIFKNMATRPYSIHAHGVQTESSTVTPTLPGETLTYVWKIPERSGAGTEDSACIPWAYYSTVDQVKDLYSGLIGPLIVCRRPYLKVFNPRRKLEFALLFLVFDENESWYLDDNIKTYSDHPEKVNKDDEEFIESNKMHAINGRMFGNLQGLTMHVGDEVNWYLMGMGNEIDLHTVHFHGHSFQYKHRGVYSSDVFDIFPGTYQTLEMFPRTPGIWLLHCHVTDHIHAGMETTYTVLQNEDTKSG
# Protocol: To understand the relation between ceruloplasmin and serum oxidases and the reactivity of modified substrates and ceruloplasmin, spike-in experiment was performed. […] The assay was incubated at 37° C. for 30 mins, and quenching the reaction by DMSO. The final products were analyzed by LC-MS/MS.
# [3] = target: T1, ceruloplasmin; assay: Cp activity in newborn plasma, LCMS; parameters: Ceruloplasmin is made in the liver and then secreted into the blood; from tissue; host or cells: serum / plasma (normal adult, newborn; Cp-depleted serum by 100 kDa filtration as comparison); conditions: without dilution
# From the text: The DMSO quenched mixture were detected by LCMS without dilution.
# [4] = target: T1, ceruloplasmin; assay: Cp-depletion test (serum filtered to remove proteins larger than 100 kDa), LCMS; parameters: Ceruloplasmin is made in the liver and then secreted into the blood; from tissue; host or cells: serum / plasma (normal adult, newborn; Cp-depleted serum by 100 kDa filtration as comparison); conditions: Cp-depleted serum 5 μL, 30 min, 37° C.
# Protocol: Normal adult serum and plasma were controls. After incubation, the DMSO quenched mixture were 100-folds diluted and detected by LCMS.
# The Cp depletion serum was obtained by size selection method. Briefly, the centrifuge filter was applied in normal serum to eliminate those proteins larger than 100 kDa, including Cp (˜130 kDa).
# [5] = tested on: serum oxidases; assay: LC-MS/MS based serum oxidase activity assay
# Protocol: Samples were detected by LC-ESI-MS on a Velos Pro dual-pressure linear ion trap mass spectrometer (Thermo Fisher Scientific, San Jose, CA) equipped with an Ultimate 3000 RSLC system from Dionex (Dionex Corporation, Sunnyvale, CA), using a Xbridge C18 (HPLC column 1 mm×15 cm i.d., 3.5 μm particle size, 130 Å pore size). Briefly, the gradient employed was 50% buffer B at 5 min to 98% buffer B at 23 min with a flow rate of 50 μL/min, where buffer A was 0.1% formic acid/H2O and buffer B was 0.1% formic acid/acetonitrile. All spectra were acquired in the mass range m/z 200-2000. Electrospray voltage was maintained at 4.0 kV and capillary temperature was set at 275° C.
# The stock solution of modified amino carbazoles (125 μM, 20 μL) were incubated with 5 μL of serum (estimate<10 nM of serum oxidases) in sodium acetate buffer (0.1M, pH 5.0, 5 μL) at 37° C. for 30 min. The serum oxidase oxidation was quenched by DMSO (90 μL), followed detection of LC-MS/MS.
# The amount of the oxidized product was determined according to the area under the peak by integration. The specific Cp activity unit was calculated by the formula: Peak area of oxidized product MS2 ion/serum volume (μL).
# The addition of DMSO was to quench the serum enzyme activity. After centrifugation, the supernatant of the mixture was detected by LC-MS/MS.
# [6] = target: T1, ceruloplasmin; assay: Colorimetric methods for ceruloplasmin oxidative activity; parameters: Ceruloplasmin is made in the liver and then secreted into the blood; from tissue; host or cells: serum / plasma (normal adult, newborn; Cp-depleted serum by 100 kDa filtration as comparison); conditions: serum volume small than 10 μL
# From the text: FIGS. 8A and 8B show the limitations of detection by current methods known in the art. […] The specific activity units of Cp are not reliable in lower volume of serum.
# The limitations of current methods and available commercial kits were described. In current method, the colorimetric methods using p-phenylenediamine (PPD) and o-dianisidine dihydrochloride (ODD) as substrates are used for quantification of ceruloplasmin oxidative activity. […] The activity of ceruloplasmin were positively correlated to absorbance. However, the correlation of absorbance and serum volume small than 10 μL was poor (FIG. 8).
structure (smiles),measurement,setting,value
"NCCc1c[nH]c2ccc(O)cc12 [ACK-1000, Serotonin (or 5-Hydroxytryptamine)]",products generated when reacting with serum oxidases,[1],specific oxidized products
"CCCCn1c2ccccc2c2cc(N)ccc21 [ACK-1001, 9-buyl-9H-carbazol-3-amine]",products generated when reacting with serum oxidases,[1],specific oxidized products
"CCn1c2ccccc2c2cc(N)ccc21 [ACK-1006, 9-ethyl-9H-carbazol-3-amine]",oxidation of substrate by recombinant ceruloplasmin,[2],could be oxidized by recombinant ceruloplasmin
same,LCMS signal of oxidized substrate in new born plasma,"[3]; new born plasma 5 μL, 30 min, 37° C.",> 10^5
same,signal of oxidative substrate in CP-depletion plasma compared with newborn plasma,[3],significantly lower
same,oxidized product detected with Cp depleted serum,[4],trace amount
same,signal intensity of m/z transition of the oxidized product,"[5]; after 1000-fold dilution, serum less than 5 μL",> 10^3
same,reaction time at which oxidized product reached highest amount,[5]; time-dependent assay,30 min
"COc1cc(-c2ccc(N)c(OC)c2)ccc1N.Cl.Cl [o-dianisidine dihydrochloride (ODD), o-dianisidine dihydrochloride]",correlation of absorbance and serum volume,[6],poor
"Nc1ccc(N)cc1 [p-phenylenediamine (PPD), p-phenylenediamine]",correlation of absorbance and serum volume,[6],poor

# — patent publication US20250369031A1, “METHODS OF DETERMINING CERULOPLASMIN ACTIVITY AND APPLICATIONS THEREOF” (ACADEMIA SINICA, priority 2022, published 2025)
